In test [1] the target is T1, K-Ras G12D (Homo sapiens, UniProt P01116, G12D).
T1 construct: made in house; host or cells: E. coli BL21 (DE3)
Nature of the test: HTRF resonance energy transfer assay, K-Ras G12D / SOS1 interaction. The class given is biochemical. The conditions noted are these: HTRF assay of Example 5; read-out: IC50 against K-Ras G12D. The gist of the method: (§1)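 GST-tagged K-Ras (WT or mutant) bound to anti-GST-Eu donor was mixed with His-hSOS1 bound to anti-6His-XL665 acceptor in ~5 mM HEPES pH 7.4, 150 mM NaCl, 1 mM DTT, 0.05% BSA, 0.0025% Igepal. HTRF (ex 337, em 620/665 nm) was read after ~10 min or longer. IC50 came from the 665/620 ratio over duplicates from 10 μM to 0.01 μM.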
In general terms: Time-resolved FRET reads energy transfer from a long-lived donor to a nearby acceptor.

Test [2] concerns the target T2, K-Ras WT (Homo sapiens, UniProt P01116).
T2 construct: made in house; host or cells: E. coli BL21 (DE3)
The test can be described thus: HTRF resonance energy transfer assay, K-Ras WT / SOS1 interaction. In kind it is biochemical. The conditions noted are these: HTRF assay of Example 5; read-out: IC50 against K-Ras WT. Put shortly:
as §1

For test [3], the target named is T3, K-Ras G12V (Homo sapiens, UniProt P01116, G12V).
T3 construct: made in house; host or cells: E. coli BL21 (DE3)
Nature of the test: HTRF resonance energy transfer assay, K-Ras G12V / SOS1 interaction. The class given is biochemical. The following applies: HTRF assay of Example 5; read-out: IC50 against K-Ras G12V. Put shortly: as §1

For test [4], the system named is GP2D cells. The test can be described thus: Ras cellular assay, growth of cells with K-Ras G12D mutation (CellTiter-Glo). The class given is cell-based. The following applies: cell growth, Example 9, G12D mutation, read-out: IC50 against GP2D cells. In general terms: Cellular ATP, detected with luciferase, serves as a proxy for viable cell number.
Test [5] relates to SW620 cells. The test can be described thus: Ras cellular assay, growth of cells with K-Ras G12V mutation (CellTiter-Glo). In kind it is cell-based. The following applies: Homo sapiens, SW-620; cell growth, Example 9, G12V mutation; read-out: IC50 against SW620 cells. The gist of the method: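 SW620 (K-Ras G12V) cells, e.g. 800/well in RPMI-1640 with 10% heat-inactivated FBS on standard or ultra-low attachment plates, were dosed the day after plating with e.g. a 10-point 3-fold series. Viability by CellTiter-Glo luminescence about 6 days later; IC50 from four-parameter fit.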

For test [6], the system named is A549 cells. Nature of the test: Ras cellular assay, growth of cells with K-Ras G12S mutation (CellTiter-Glo). In kind it is cell-based. The conditions noted are these: Homo sapiens, cell growth, Example 9, G12S mutation, read-out: IC50 against A549 cells. The gist of the method: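 A549 cells (K-Ras G12S) in RPMI-1640 with 10% heat-inactivated FBS, seeded e.g. 800 per well in standard or ultra-low-attachment 384-well plates, treated next day with a dilution series (e.g. 10-point, 3-fold). Viability by CellTiter-Glo luminescence about 6 days later; IC50 from four-parameter fit.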

In test [7] the target is T4, K-Ras G12S (Homo sapiens, UniProt P01116, G12S).
T4 construct: made in house; host or cells: E. coli BL21 (DE3)
Nature of the test: HTRF resonance energy transfer assay, K-Ras G12S / SOS1 interaction. The class given is biochemical. The following applies: HTRF assay of Example 5; read-out: IC50 against K-Ras G12S. The gist of the method: as §1

One may read the IC50 as the point on the concentration scale where inhibition reaches its midpoint.

T3 sequence (P01116 1-188 isoform P01116-2 G12V): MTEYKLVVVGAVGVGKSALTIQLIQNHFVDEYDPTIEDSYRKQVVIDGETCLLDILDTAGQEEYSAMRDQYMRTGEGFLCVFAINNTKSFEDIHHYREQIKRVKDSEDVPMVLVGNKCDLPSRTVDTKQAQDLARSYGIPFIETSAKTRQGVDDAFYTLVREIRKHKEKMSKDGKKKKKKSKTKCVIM
T1 sequence (P01116 1-188 isoform P01116-2 G12D): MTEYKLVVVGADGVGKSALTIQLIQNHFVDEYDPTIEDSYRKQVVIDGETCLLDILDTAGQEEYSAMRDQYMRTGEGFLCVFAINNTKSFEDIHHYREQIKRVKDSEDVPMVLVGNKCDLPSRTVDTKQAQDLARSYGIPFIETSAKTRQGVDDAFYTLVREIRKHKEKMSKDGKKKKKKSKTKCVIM
T2 sequence (P01116 1-188 isoform P01116-2): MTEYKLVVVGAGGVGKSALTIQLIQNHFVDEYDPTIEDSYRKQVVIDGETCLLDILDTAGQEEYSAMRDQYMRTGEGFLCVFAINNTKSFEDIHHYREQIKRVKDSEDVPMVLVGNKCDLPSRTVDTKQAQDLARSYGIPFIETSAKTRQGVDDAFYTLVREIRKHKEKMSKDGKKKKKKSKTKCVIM
T4 sequence (P01116 1-188 isoform P01116-2 G12S): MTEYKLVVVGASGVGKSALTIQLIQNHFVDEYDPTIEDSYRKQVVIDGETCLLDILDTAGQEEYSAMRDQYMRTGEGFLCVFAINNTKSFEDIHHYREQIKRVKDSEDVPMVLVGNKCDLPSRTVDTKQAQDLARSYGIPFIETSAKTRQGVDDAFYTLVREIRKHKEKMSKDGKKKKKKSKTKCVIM

For `N#Cc1c(N)sc2c(F)ccc(-c3c(Cl)c4c5c(nc(OC[C@@]67CCCN6C[C@H](F)C7)nc5c3F)N(C3CCN(C(=O)C5CCO5)C3)CCO4)c12` (stereo partly drawn) [Compound 1064, 2-amino-4-(8-chloro-10-fluoro-2-(((2R,7aS)-2-fluorotetrahydro-1H-pyrrolizin-7a(5H)-yl)methoxy)-4-(1-(oxetane-2-carbonyl)pyrrolidin-3-yl)-5,6-dihydro-4H-[1,4]oxazepino[5,6,7-de]quinazolin-9-yl)-7-fluorobenzo[b]thiophene-3-carbonitrile], the IC50 was < 0.1 µM in test [1]; < 0.1 µM in test [2]; < 0.1 µM in test [3]; < 0.5 µM in test [4]; < 5 µM in test [5]; < 5 µM in test [6]. Also, in test [7], the IC50 is < 0.1 µM.
As to `C[C@@H](O)[C@H]1COc2c(Cl)c(-c3ccc(F)c4sc(N)c(C#N)c34)c(F)c3nc(OC[C@@]45CCCN4C[C@H](F)C5)nc(c23)N1CC(F)F` [Compound 1080, 2-amino-4-((5R)-8-chloro-4-(2,2-difluoroethyl)-10-fluoro-2-(((2R,7aS)-2-fluorotetrahydro-1H-pyrrolizin-7a(5H)-yl)methoxy)-5-((R)-1-hydroxyethyl)-5,6-dihydro-4H-[1,4]oxazepino[5,6,7-de]quinazolin-9-yl)-7-fluorobenzo[b]thiophene-3-carbonitrile], the IC50 was < 0.1 µM in test [1]; < 0.1 µM in test [2]; < 0.1 µM in test [3]; < 0.5 µM in test [4]; < 5 µM in test [5]; < 5 µM in test [6]. Further, the IC50 in test [7] is < 0.1 µM.
As to `N#Cc1c(N)sc2c(F)ccc(-c3c(Cl)c4c5c(nc(OC[C@@]67CCCN6C[C@H](F)C7)nc5c3F)N([C@H]3CCN(C=O)C3)CCO4)c12` [Compound 1095, 2-amino-4-(8-chloro-10-fluoro-2-(((2R,7aS)-2-fluorotetrahydro-1H-pyrrolizin-7a(5H)-yl)methoxy)-4-((S)-1-formylpyrrolidin-3-yl)-5,6-dihydro-4H-[1,4]oxazepino[5,6,7-de]quinazolin-9-yl)-7-fluorobenzo[b]thiophene-3-carbonitrile], the half-inhibitory concentration (IC50) in test [1] is < 0.1 µM; in test [2], < 0.1 µM; in test [3], < 0.1 µM; in test [4], < 0.5 µM; in test [5], < 5 µM; in test [6], < 5 µM. In addition, the concentration for half-maximal inhibition (IC50) in test [7] is < 0.1 µM.
Consider `CC(F)(F)CN1CCOc2c(Cl)c(-c3ccc(F)c4sc(N)c(C#N)c34)c(F)c3nc(OC[C@@]45CCCN4C[C@H](F)C5)nc1c23` [Compound 1108, 2-amino-4-(8-chloro-4-(2,2-difluoropropyl)-10-fluoro-2-(((2R,7aS)-2-fluorotetrahydro-1H-pyrrolizin-7a(5H)-yl)methoxy)-5,6-dihydro-4H-[1,4]oxazepino[5,6,7-de]quinazolin-9-yl)-7-fluorobenzo[b]thiophene-3-carbonitrile], for which the 50% inhibitory concentration (IC50) in test [1] is < 0.1 µM; in test [2], < 0.1 µM; in test [3], < 0.1 µM; in test [4], < 0.5 µM; in test [5], < 5 µM; in test [6], < 5 µM. Further, the IC50 in test [7] was < 0.1 µM.
As for `CO[C@H](C)C(=O)N1CCC(N2CCOc3c(Cl)c(-c4ccc(F)c5sc(N)c(C#N)c45)c(F)c4nc(OC[C@@]56CCCN5C[C@H](F)C6)nc2c34)C1` (stereo partly drawn) [Compound 1110, 2-amino-4-(8-chloro-10-fluoro-2-(((2R,7aS)-2-fluorotetrahydro-1H-pyrrolizin-7a(5H)-yl)methoxy)-4-(1-((R)-2-methoxypropanoyl)pyrrolidin-3-yl)-5,6-dihydro-4H-[1,4]oxazepino[5,6,7-de]quinazolin-9-yl)-7-fluorobenzo[b]thiophene-3-carbonitrile], the IC50 was < 0.1 µM in test [1]; < 0.1 µM in test [2]; < 0.1 µM in test [3]; < 0.5 µM in test [4]; < 5 µM in test [5]; < 5 µM in test [6]. Further, the IC50 in test [7] is < 0.1 µM.
Regarding `CN1c2nc(OC[C@@]34CCCN3C[C@H](F)C4)nc3c(F)c(-c4ccc(F)c5sc(N)c(C#N)c45)c(Cl)c(c23)OC[C@@H]1CN` [Compound 1113, 2-amino-4-((5S)-5-(aminomethyl)-8-chloro-10-fluoro-2-(((2R,7aS)-2-fluorotetrahydro-1H-pyrrolizin-7a(5H)-yl)methoxy)-4-methyl-5,6-dihydro-4H-[1,4]oxazepino[5,6,7-de]quinazolin-9-yl)-7-fluorobenzo[b]thiophene-3-carbonitrile], the IC50 is < 0.1 µM in test [1]; < 0.1 µM in test [2]; < 0.1 µM in test [3]; < 0.5 µM in test [4]; < 5 µM in test [5]; < 5 µM in test [6]. Also, the IC50 in test [7] is < 0.1 µM.
In the case of `N#Cc1c(N)sc2c(F)ccc(-c3c(Cl)c4c5c(nc(OC[C@@]67CCCN6C[C@H](F)C7)nc5c3F)N(C3CCC5(C3)CN(C(=O)CC3COC3)C5)CCO4)c12` (stereo partly drawn) [Compound 1115, 2-amino-4-(8-chloro-10-fluoro-2-(((2R,7aS)-2-fluorotetrahydro-1H-pyrrolizin-7a(5H)-yl)methoxy)-4-(2-(2-(oxetan-3-yl)acetyl)-2-azaspiro[3.4]octan-6-yl)-5,6-dihydro-4H-[1,4]oxazepino[5,6,7-de]quinazolin-9-yl)-7-fluorobenzo[b]thiophene-3-carbonitrile], the IC50 in test [1] is < 0.1 µM; in test [2], < 0.1 µM; in test [3] it was < 0.1 µM; in test [4] it was < 0.5 µM; in test [5], < 5 µM; in test [6], < 5 µM. The IC50 in test [7] is < 0.1 µM.
Consider `CN(C=O)C1CC(N2CCOc3c(Cl)c(-c4ccc(F)c5sc(N)c(C#N)c45)c(F)c4nc(OC[C@@]56CCCN5C[C@H](F)C6)nc2c34)C1` (stereo partly drawn) [Compound 1119, N-(3-(9-(2-amino-3-cyano-7-fluorobenzo[b]thiophen-4-yl)-8-chloro-10-fluoro-2-(((2R,7aS)-2-fluorotetrahydro-1H-pyrrolizin-7a(5H)-yl)methoxy)-5,6-dihydro-4H-[1,4]oxazepino[5,6,7-de]quinazolin-4-yl)cyclobutyl)-N-methylformamide], for which the IC50 in test [1] was < 0.1 µM; in test [2], < 0.1 µM; in test [3], < 0.1 µM; in test [4] it was < 0.5 µM; in test [5], < 5 µM; in test [6] it was < 5 µM. Also, the IC50 in test [7] is < 0.1 µM.
Turning to `N#Cc1c(N)sc2c(F)ccc(-c3c(Cl)c4c5c(nc(OC[C@@]67CCCN6C[C@H](F)C7)nc5c3F)N(C3CCN(C(=O)CC5COC5)C3)CCO4)c12` (stereo partly drawn) [Compound 1126, 2-amino-4-(8-chloro-10-fluoro-2-(((2R,7aS)-2-fluorotetrahydro-1H-pyrrolizin-7a(5H)-yl)methoxy)-4-(1-(2-(oxetan-3-yl)acetyl)pyrrolidin-3-yl)-5,6-dihydro-4H-[1,4]oxazepino[5,6,7-de]quinazolin-9-yl)-7-fluorobenzo[b]thiophene-3-carbonitrile], the IC50 was < 0.1 µM in test [1]; < 0.1 µM in test [2]; < 0.1 µM in test [3]; < 0.5 µM in test [4]; < 5 µM in test [5]; < 5 µM in test [6]. The IC50 in test [7] is < 0.1 µM.
Turning to `CN(CCN1CCOc2c(Cl)c(-c3ccc(F)c4sc(N)c(C#N)c34)c(F)c3nc(OC[C@@]45CCCN4C[C@H](F)C5)nc1c23)C(=O)C(F)F` [Compound 1127, N-(2-(9-(2-amino-3-cyano-7-fluorobenzo[b]thiophen-4-yl)-8-chloro-10-fluoro-2-(((2R,7aS)-2-fluorotetrahydro-1H-pyrrolizin-7a(5H)-yl)methoxy)-5,6-dihydro-4H-[1,4]oxazepino[5,6,7-de]quinazolin-4-yl)ethyl)-2,2-difluoro-N-methylacetamide], the IC50 was < 0.1 µM in test [1]; < 0.1 µM in test [2]; < 0.1 µM in test [3]; < 0.5 µM in test [4]; < 5 µM in test [5]; < 5 µM in test [6]. In addition, the half-inhibitory concentration (IC50) in test [7] is < 0.1 µM.

The values are drawn from patent publication US12209102B2, “Heterocyclic compounds and uses thereof” (Kumquat Biosciences Inc., priority 2022, dated 2025).
